Results from patent US20040082503A1, “Methods for treatment of diabetes using peptide analogues of insulin” (Neurocrine Biosciences, Inc., priority 1998, published 2004).

Columns and labels:
[1] = tested on: Insulin specific NOD T cell clone PD12-4.4; experiment: Proliferation of insulin-specific NOD T cell clone PD12-4.4; format: cell-based, mouse (NOD); conditions: 50 μg/ml peptide, 72 h, 3H-thymidine; no antigen 350 cpm
Protocol: (§1) Insulin specific NOD T cell lines were established by culturing lymphocytes isolated from islet-infiltrating populations by in vitro stimulation with either porcine insulin at 25 μg/ml and irradiated NOD islet cell in the presence of irradiated NOD spleen cells as antigen presenting cells and cytokines. To obtain the infiltrating lymphocytes the following procedures were performed (see Wegmann et al., Eur. J. Immunol. 24:1853, 1994): the pancreas from the NOD mouse was digested with collagenase and individual islets were isolated manually. The infiltrating lymphocytes were then obtained by mild trypsin digestion of the islets. The insulin specific T cell lines or clones were propagated by serial stimulation in the presence of NOD spleen cells, porcine insulin and lymphokines. Clones were obtained by limiting dilution of the B chain (9-23) specific T cell lines in the presence of the antigen presenting cells and porcine insulin at 25 μg/ml. Wells with a growing population of cells following limiting dilution were expanded in appropriate medium, and after one cycle of growth were tested for reactivity to the B chain (9-23) peptide of insulin by evaluating the proliferative response.
(§2) Insulin B chain (9-23) (SEQ ID NO:2) specific mouse (NOD) T cell clones were isolated from infiltrated islets as described in Example 2. Peptide analogues with single alanine substitutions were prepared as described in Example 1. The effect of each analogue on T cell proliferation was then evaluated using an assay performed in 96-well flat bottom microtiter plates (see Daniel et al., Eur. J. Immunol. 25:1056, 1995). Briefly 25,000 T cell clones along with 1 million irradiated NOD spleen cells were cultured in the presence of 50 μg/ml of insulin B chain 9-23 peptide or any of the alanine substituted peptides listed below in triplicate sets. The plates were incubated for a total of 72 hours in 7% carbon dioxide atmosphere with a pulse of 1 μCi/well of tritiated thymidine for the last 6-8 hours of culture. Cells were harvested on a glass fiber filter and the associated radioactivity was counted in a liquid scintillation counter. Results are expressed as mean counts per minute of triplicate wells.

[2] = tested on: Insulin specific NOD T cell clone PD12-4.29; experiment: Proliferation of insulin-specific NOD T cell clone PD12-4.29; format: cell-based, mouse (NOD); conditions: 50 μg/ml peptide, 72 h, 3H-thymidine; no antigen 789 cpm
Protocol: as §1, §2

[3] = tested on: Insulin specific NOD T cell clone PD12-4.34; experiment: Proliferation of insulin-specific NOD T cell clone PD12-4.34; format: cell-based, mouse (NOD); conditions: 50 μg/ml peptide, 72 h, 3H-thymidine; no antigen 231 cpm
Protocol: as §1, §2

[4] = tested on: Insulin specific NOD T cell clone PD6-4.3; experiment: Proliferation of insulin-specific NOD T cell clone PD6-4.3; format: cell-based, mouse (NOD); conditions: 50 μg/ml peptide, 72 h, 3H-thymidine; no antigen 163 cpm
Protocol: as §1, §2

[5] = tested on: Insulin specific NOD T cell clone PD12-2.40; experiment: Proliferation of insulin-specific NOD T cell clone PD12-2.40; format: cell-based, mouse (NOD); conditions: 50 μg/ml peptide, 72 h, 3H-thymidine; no antigen 682 cpm
Protocol: as §1, §2
(§3) NOD T cell clones were incubated in the presence of 50 μM of either the native B chain (9-23) peptide or NBI-6024. The data in Table 3 represent the mean of triplicate sample±standard error of the mean. Within Table 3, S.I. (Stimulation Index)=proliferation (cpm) in the presence of the peptide/proliferation (cpm) in medium alone.

[6] = tested on: B chain (9-23) specific mouse T cell clones; experiment: Antagonism of T cell proliferation assay (FIG. 2); format: cell-based, mouse (NOD); conditions: varying amounts of analogue
Protocol: FIG. 2 is a graph showing the proliferative response (measured in cpm) of a NOD mouse T cell clone to a native insulin B chain (9-23) peptide in the presence of varying amounts of representative peptide analogues, in which different residues are substituted with alanine, as indicated.
Peptide analogues of B chain (9-23) containing alanine substitutions at residue 12, 13, 15 or 16 or the doubly substituted peptide at positions 16 and 19 (A^16,19; NBI-6024) were prepared as described in Example 1. T cell antagonism was detected by evaluating the ability of the peptide analogues to inhibit T cell proliferation induced by native B chain (9-23) (SEQ ID NO:2). In this assay, antigen presenting cells were first irradiated and then incubated with the competing peptide analogue and the native B chain (9-23) peptide. T cells were then added to the culture. Various concentrations of candidate peptide analogues were included in cultures which were incubated for a total of 4 days. Following this incubation period, each culture was pulsed with 1 μCi of [^3H]-thymidine for an additional 12-18 hours. Cultures were then harvested on fiberglass filters and counted as above. Mean CPM and standard error of the mean were calculated from data determined in triplicate cultures.

[7] = tested on: Insulin B chain (9-23) specific mouse (NOD) T cell clones; experiment: Proliferation of insulin-specific NOD T cell clones (summary over clones); format: cell-based; conditions: five separate T cell clones; 50 μg/ml peptide
Protocol: as §1, §2, §3

[8] = tested on: NOD mice (spontaneous diabetes); experiment: Reduction of incidence of diabetes in NOD mice; format: in vivo, NOD mouse; conditions: NOD mice, 400 μg s.c. weekly, 13 treatments; neurotensin as control; FIG. 10

Row | Substance | Response (cpm) of T cell clone PD12-4.4 [1] [cpm] | Response (cpm) of T cell clone PD12-4.29 [2] [cpm] | Response (cpm) of T cell clone PD12-4.34 [3] [cpm] | Response (cpm) of T cell clone PD6-4.3 [4] [cpm] | Response (cpm) of T cell clone PD12-2.40 [5] [cpm] | Inhibition of T cell proliferation induced by native B chain (9-23) [6] | Proliferation relative to the 9-23 native peptide of insulin B chain [7] | Incidence of diabetes (percent of mice diabetic) [8]
1 | Position 10: insulin B chain (9-23) analogue, native H at position 10 substituted with A | 823 | 15484 | 356 | 12507 | 1409 | – | – | –
2 | Position 11: insulin B chain (9-23) analogue, native L at position 11 substituted with A | 474 | 18416 | 190 | 14148 | 2594 | – | – | –
3 | Position 12: insulin B chain (9-23) analogue, native V at position 12 substituted with A (SHLAEALYLVCGERG) | 1129 | 15041 | 194 | 8292 | 671 | capable of attenuating the response | either a lack of proliferation or significantly reduced proliferation | –
4 | Position 13: insulin B chain (9-23) analogue, native E at position 13 substituted with A (SHLVAALYLVCGERG) | 373 | 891 | 179 | 142 | 519 | capable of attenuating the response | either a lack of proliferation or significantly reduced proliferation | more pronounced
5 | Position 15: insulin B chain (9-23) analogue, native L at position 15 substituted with A (SHLVEAAYLVCGERG) | 675 | 809 | 191 | 161 | 1422 | – | either a lack of proliferation or significantly reduced proliferation | –
6 | Position 16: insulin B chain (9-23) analogue, native Y at position 16 substituted with A (SHLVEALALVCGERG) | 779 | 636 | 202 | 98 | 539 | capable of attenuating the response | either a lack of proliferation or significantly reduced proliferation | –
7 | Position 17: insulin B chain (9-23) analogue, native L at position 17 substituted with A | 332 | 1460 | 4360 | 553 | 19321 | – | either a lack of proliferation or significantly reduced proliferation | –
8 | Position 18: insulin B chain (9-23) analogue, native V at position 18 substituted with A | 225 | 1193 | 721 | 234 | 44785 | – | either a lack of proliferation or significantly reduced proliferation | –
9 | Position 19: insulin B chain (9-23) analogue, native C at position 19 substituted with A | 4295 | 6054 | 689 | 7678 | 34212 | – | – | –
10 | Position 20: insulin B chain (9-23) analogue, native G at position 20 substituted with A | 1323 | 13736 | 466 | 2440 | 38685 | – | – | –
11 | Position 21: insulin B chain (9-23) analogue, native E at position 21 substituted with A | 7900 | 4904 | 773 | 91 | 39087 | – | – | –
12 | Position 22: insulin B chain (9-23) analogue, native R at position 22 substituted with A | 1313 | 12635 | 1555 | 6555 | 51721 | – | – | –
13 | Position 23: insulin B chain (9-23) analogue, native G at position 23 substituted with A | 3228 | 18422 | 791 | 14304 | 75441 | – | – | –
